Values quoted from earlier work as cited in patent US20080254114A1, “Controlled Release Compositions Comprising Heterocyclic Amide Derivative Nanoparticles” (Elan Corporation plc, priority 2005, published 2008).

Tests used:
[1] = administration with food; high fat meal and high protein meal, two separate studies
[2] = system: airway responses to antigen; conditions: sensitized sheep, inhalational challenge
[3] = system: leukotrienes (LTC4, LTD4 and LTE4); conditions: conducting airway smooth muscle, in vitro
LTD4 = conditions: inhaled LTD4

reduction of mean bioavailability by food [1]: approximately 40%
solubility in acetone (acetone): freely soluble
solubility in dimethyl-sulfoxide (dimethyl-sulfoxide): freely soluble
solubility in methanol (methanol): slightly soluble
solubility in tetrahydrofuran (tetrahydrofuran): freely soluble
solubility in water (water): practically insoluble
Compound: COc1cc(C(=O)NS(=O)(=O)c2ccccc2C)ccc1Cc1cn(C)c2ccc(NC(=O)OC3CCCC3)cc12 [Zafirlukast, 4-(5-cyclopentyloxy-carbonylamino-1-methyl-indol-3-ylmethyl)-3-methoxy-N-o-tolylsulfonylbenzamide]
airway responses to antigen (early- and late-phase response, nonspecific hyperresponsiveness) [2]: suppressed
contractile activity of LTC4, LTD4 and LTE4 [3]: antagonized
increase in bronchial hyperresponsiveness to inhaled histamine (bronchoconstriction; following inhaled allergen challenge): attenuated
early- and late-phase reaction caused by inhalation of antigens (grass, cat dander, ragweed, mixed antigens) (bronchoconstriction; patients with asthma, pretreatment with single doses): attenuated
bronchoconstriction caused by sulfur dioxide and cold air (bronchoconstriction; patients with asthma, pretreatment with single oral doses): inhibited
LTD4-induced influx of eosinophils into animal lungs (LTD4): inhibited
